Data taken from patent US20250340543A1, “GPR84 ANTAGONISTS AND USES THEREOF” (Liminal BioSciences Limited, priority 2021, published 2025).

Target: GPR84 (Homo sapiens (Human), UniProt Q9NQS5)
Assay: Gai biosensor BRET assay (GPR84-mediated activation of Gai, antagonist mode against agonist ZQ-16)
Assay type: cell-based
Conditions: HEK293 cells, 200 nmol/L GPR84 agonist ZQ-16, read-out: hGPR84 IC50
Source text: Background—The following assays can be used for determination of GPR84 activation in living HEK293 cells. […] The Gai biosensor consists of a Rluc8-tagged Gαi2 subunit, a GFP10-tagged Gγ2 subunit, and an untagged Gβ1. […] Moreover, signaling functions of GPCRs are tightly regulated by endocytosis, the targeting of receptors to endosomes and their sorting to lysosomes or recycling to the plasma membrane. […] Agonist stimulation of GPR84—Rluc8 leads to trafficking of the receptor to EEs, and ensuing increase of the donor concentration relative to the rGFP-FYVE acceptor anchored in the same cellular compartment, and thus results in an increase in BRET signal.
Plasmids—The cDNA clones for human GPR84 receptor, human Gαi2, Gβ1, and Gγ2 were obtained from the cDNA Resource Center (www.cdna.org). GFP10 (F64L, S147P, S202F and H231L variant of Aequorea victoria Green Fluorescent Protein) gBlocks gene fragments (Integrated DNA Technologies, IA) and linker were inserted in frame at the N-terminus of human Gγ2. Rluc8 (A55T, C124A, S130A, K136R, A143M, M185V, M253L, and S287L variant of the Renilla renformis luciferase) gBlocks gene fragment was inserted with linkers in frame in between residues 91 and 92 of Gαi2 or at the C-terminus of GPR84. The FYVE domain from human endofin (residues Q739 to K806) attached in frame at the C terminus of a humanized Renilla GFP (rGFP), were synthesized as gBlocks gene fragments.
Bioluminescence Resonance Energy Transfer (BRET) Measurement—HEK293 cells were transfected with GPR84—Rluc8 and rGFP-FYVE for the EEs trafficking biosensor or with GPR84, Gαi2—Rluc8, GFP10-Gγ2, and Gβ1 for the Gai biosensor. The following day, transiently transfected cells were seeded in 96-well white clear bottom microplates coated with poly-D-lysine and left in culture for 24 hours. Cells were washed once with Tyrode's buffer (140 mmol/L NaCl, 1 mmol/L CaCl2, 2.7 mmol/L KCl, 0.49 mmol/L MgCl2, 0.37 mmol/L NaH2PO4, 5.6 mmol/L glucose, 12 mmol/L NaHCO3, and 25 mmol/L HEPES, pH 7.5) before performing assays in Tyrode's buffer. Test compounds were incubated with cells for 5 (Gai) or 15 (EEs) minutes at 37° C. before addition of 200 nmol/L of the GPR84 agonist ZQ-16 (2-(Hexylthio)-6-hydroxy-4(3H)-pyrimidinone) for 5 minutes at room temperature (Gai) or 30 minutes at 37° C. (EEs). The Rluc8 substrate coelenterazine 400A (Prolume, Lakeside, AZ) was added at a final concentration of […] and BRET readings were collected using an Infinite M1000 microplate reader (Tecan, Morrisville, NC). BRET^2 readings between Rluc8 and GFP10 or rGFP were collected by sequential integration of the signals detected in the 370 to 450 nm (Rluc8) and 510 to 540 nm (GFP10, rGFP) windows. The BRET signal was calculated as the ratio of light emitted by acceptor (GFP10, rGFP) over the light emitted by donor (Rluc8). The values were corrected to net BRET by subtracting the background BRET signal obtained in cells transfected with Rluc8 constructs alone. Ligand-promoted net BRET values were calculated by subtracting vehicle-induced net BRET from ligand-induced net BRET.

Chain of GPR84 (Q9NQS5 whole entry): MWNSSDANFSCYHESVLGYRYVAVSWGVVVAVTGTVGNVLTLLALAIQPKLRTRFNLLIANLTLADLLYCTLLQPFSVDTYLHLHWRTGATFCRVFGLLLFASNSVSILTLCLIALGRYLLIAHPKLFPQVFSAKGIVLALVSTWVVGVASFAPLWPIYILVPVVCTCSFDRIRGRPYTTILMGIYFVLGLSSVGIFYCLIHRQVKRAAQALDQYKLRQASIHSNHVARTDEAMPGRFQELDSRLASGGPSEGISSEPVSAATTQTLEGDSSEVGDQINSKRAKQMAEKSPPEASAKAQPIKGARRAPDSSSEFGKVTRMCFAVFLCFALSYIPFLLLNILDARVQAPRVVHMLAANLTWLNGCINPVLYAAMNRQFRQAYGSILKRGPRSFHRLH

Row | IC50 | Compound
1 | > 12.5 µM | Cc1cc(OCc2ccccn2)ccc1-c1cc(OCC2COCCO2)cc(Cl)n1 (centres unmarked) [Compound I-58]

Same assay, conditions: compound tested at 2 μM (concentration code A)

Row | inhibition at 2 µM | Compound
2 | 25 to 50% | COc1cc(OCC2COc3ncccc3O2)cc(-c2ccc(-c3ccc(C)nc3)cc2C)n1 (centres unmarked) [Compound I-57]

Same assay, conditions: compound tested at 5 μM (concentration code C)

Row | inhibition at 5 µM | Compound
3 | < 25% | COc1cc(OCC2COc3cccnc3O2)cc(-c2ccc(-c3ccc(C)nc3)cc2C)n1 (centres unmarked) [Compound I-64]

Same assay, conditions: compound tested at 10 μM (concentration code D)

Row | Compound | inhibition at 10 µM
4 | Cc1cc(OCC2COc3ccccc3O2)cc(=O)n1C(C)c1ccc(C#CC2CC2)cc1 (centres unmarked) [Compound I-65] | < 25%
5 | Cc1cc(OCC2COCCO2)cc(=O)n1C(C)c1ccc(C#CC(C)(C)C)cc1 (centres unmarked) [Compound I-68] | < 25%
6 | Cc1cc(OCC2COCCO2)cc(=O)n1C(C)c1ccc(C#CC2CC2)cn1 (centres unmarked) [Compound I-76] | < 25%
7 | Cc1cc(OCC2COCCO2)cc(=O)n1Cc1cccc(OCc2ccccc2)c1 (centres unmarked) [Compound I-82] | < 25%
8 | Cc1cc(OCC2COCCO2)cc(=O)n1C(C)c1cccc(C#CC2CC2)c1 (centres unmarked) [Compound I-88] | < 25%
9 | Cc1cc(OCC2COCCO2)cc(=O)n1Cc1cccc(C#CC(C)(C)C)c1 (centres unmarked) [Compound I-96] | < 25%
10 | Cc1cc(OCC2COCCO2)cc(=O)n1Cc1cccc(C#CCNCc2ccccc2)c1 (centres unmarked) [Compound I-97] | < 25%
11 | Cc1cc(C#CC2CC2)ccc1C(C)n1c(C)cc(OCC2COCCO2)cc1=O (centres unmarked) [Compound I-100] | < 25%
12 | Cc1cc(OCC2COc3ncccc3O2)cc(=O)n1C(C)c1ccc(C#CC2CC2)cc1 (centres unmarked) [Compound I-106] | > 75%
13 | Cc1cc(C#CC2CC2)ccc1Cn1c(C)nc(OCC2COCCO2)cc1=O (centres unmarked) [Compound I-113] | < 25%
14 | Cc1ccc(C#CC2CC2)cc1Cn1c(C)cc(OCC2COCCO2)cc1=O (centres unmarked) [Compound I-115] | < 25%
15 | Cc1cc(OC[C@H]2COCCO2)cc(=O)n1Cc1ccc(N2CC(C)(C)C2)cc1 [Compound I-116] | < 25%
16 | Cc1cc(OCC2COCCO2)cc(=O)n1C(C)c1ccc(C#CCNc2ccccc2)cc1 (centres unmarked) [Compound I-117] | < 25%
17 | Cc1cc(OC[C@H]2COc3ncccc3O2)cc(=O)n1Cc1cccc(C#CC2CC2)c1 [Compound I-118] | < 25%
18 | Cc1cc(OCc2ccccn2)ccc1-c1cc(OCC2COCCO2)[nH]c(=O)c1 (centres unmarked) [Compound I-120] | < 25%
19 | Cc1cc(OCc2ccccn2)ccc1-c1cc(OCC2COCCO2)n(C)c(=O)c1 (centres unmarked) [Compound I-121] | < 25%
20 | Cn1c(-c2ccc(C#CC3CC3)cc2)cc(=O)n(C[C@H]2COCCO2)c1=O [Compound I-122] | < 25%

Now from value to compound:

Row | inhibition at 10 µM | Compound
21 | 25 to 50% | Cc1cc(OCC(F)(F)F)ccc1-c1cncc(OCC2CCCCO2)c1 (centres unmarked) [Compound I-56]
22 | < 25% | Cc1cc(OCC2COCCO2)cc(=O)n1C(C)c1ccc(OCC(F)(F)F)cc1 (centres unmarked) [Compound I-99]
23 | < 25% | Cc1cc(OCC2COCCO2)cc(=O)n1Cc1cccc(OCC(F)(F)F)c1 (centres unmarked) [Compound I-114]
24 | < 25% | O=c1cc(OCC2COCCO2)nc(-c2ccc(C#CC3CC3)cc2)[nH]1 (centres unmarked) [Compound I-119]

Same assay, conditions: compound tested at 12.5 μM (concentration code E)

Row | inhibition at 12.5 µM | Compound
25 | 25 to 50% | Cc1cc(OCc2ccccn2)ccc1-c1cc(OCC2COCCO2)cc(Cl)n1 (centres unmarked) [Compound I-58]
26 | < 25% | Cc1cc(OCC2COc3ccccc3O2)cc(=O)n1Cc1ccc(C#CC2CC2)cc1 (centres unmarked) [Compound I-73]
27 | < 25% | Clc1cc(OCC2COCCO2)cc(-c2ccc(OCc3ccccn3)cc2)n1 (centres unmarked) [Compound I-107]

Same assay, conditions: compound tested at 15 μM (concentration code F)

Row | inhibition at 15 µM | Compound
28 | < 25% | COc1cc(OCC2COCCO2)cc(-c2cccc(-c3ccc(C)nc3)c2)n1 (centres unmarked) [Compound I-66]
29 | < 25% | Cc1cc(OCC2COCCO2)nc(OCc2ccc(C#CC3CC3)cc2)n1 (centres unmarked) [Compound I-85]

Same assay, conditions: compound tested at 25 μM (concentration code G)

Row | Compound | inhibition at 25 µM
30 | Cc1cc(OCC2COCCO2)cc(=O)n1Cc1cccc(OCc2ccccn2)c1 (centres unmarked) [Compound I-63] | < 25%
31 | Cn1c(-c2ccc(C#CC3CC3)cc2)cc(OCC2COCCO2)cc1=O (centres unmarked) [Compound I-67] | < 25%
32 | Cc1cc(OCc2ccccn2)ccc1-c1cc(OCC2COCCO2)cc(=O)[nH]1 (centres unmarked) [Compound I-71] | < 25%
33 | CCc1cc(OCC2COCCO2)cc(OCc2ccc(C#CC3CC3)cc2)n1 (centres unmarked) [Compound I-72] | < 25%
34 | COc1cc(NC(=O)C2CCCCO2)cc(-c2ccc(C#CC3CC3)cc2)n1 (centres unmarked) [Compound I-75] | < 25%
35 | COc1cc(NC(=O)C2CCCCO2)cc(-c2cccc(C#CC3CC3)c2)n1 (centres unmarked) [Compound I-84] | < 25%
36 | Cc1ccc(N2CCN(c3cc(OCC4COCCO4)nc(=O)n3C)CC2)cn1 (centres unmarked) [Compound I-86] | < 25%
37 | Cc1ccc(-c2ccc(Cn3c(C)cc(OCC4COCCO4)cc3=O)cc2)cn1 (centres unmarked) [Compound I-91] | < 25%
38 | COc1cc(NC(=O)C2COCCO2)cc(-c2ccc(C#CC3CC3)cc2)n1 (centres unmarked) [Compound I-98] | < 25%
39 | Cc1cc(C#CC2CC2)ccc1Cn1c(C)cc(OCC2COCCO2)cc1=O (centres unmarked) [Compound I-101] | < 25%
40 | Cc1cc(C#CC2CC2)ccc1-c1cc(OCC2COCCO2)cc(Cl)n1 (centres unmarked) [Compound I-108] | < 25%
41 | Clc1cc(OCC2COCCO2)cc(-c2ccc(C#CCNc3ccccc3)cc2)n1 (centres unmarked) [Compound I-109] | < 25%

The remaining lines, values ahead:

Row | inhibition at 25 µM | Compound
42 | 25 to 50% | [O-][n+]1cc(OCC2COCCO2)cc(-c2ccc(OCC(F)(F)F)cc2)c1 (centres unmarked) [Compound I-59]
43 | < 25% | Cn1c(-c2ccc(OCC(F)(F)F)cc2)cc(OCC2COCCO2)nc1=O (centres unmarked) [Compound I-62]
44 | < 25% | COc1cc(OCC2COCCO2)cc(-c2cc(C#CC3CC3)ccc2C)n1 (centres unmarked) [Compound I-70]
45 | < 25% | O=c1nc(OCC2COCCO2)ccn1Cc1cc(OCC(F)(F)F)ccc1Br (centres unmarked) [Compound I-77]
46 | < 25% | COc1c(C)cc(OCC2COCCO2)nc1-c1ccc(OCC(F)(F)F)cc1 (centres unmarked) [Compound I-78]
47 | < 25% | COc1cc(OCC2COCCO2)cc(-c2cc(C#CCNc3ccccc3)ccc2C)n1 (centres unmarked) [Compound I-79]
48 | < 25% | COc1ccc(CN2CCN(c3cc(OCC4COCCO4)nc(=O)n3C)CC2)cc1 (centres unmarked) [Compound I-81]
49 | < 25% | COc1cc(OCC2COCCO2)cc(-c2ccc(C#CC3CC3)cc2C)n1 (centres unmarked) [Compound I-90]
50 | < 25% | Cc1nc(OCc2ccc(C#CC3CC3)cc2)cc(OCC2COCCO2)n1 (centres unmarked) [Compound I-92]
51 | < 25% | Cc1ccc(-c2ccc(-c3cc(OCC4COCCO4)cc(Cl)n3)c(C)c2)cn1 (centres unmarked) [Compound I-93]
52 | < 25% | COc1cc(OCC2COCCO2)nc(-c2ccc(OCC(F)(F)F)cc2)c1OC (centres unmarked) [Compound I-94]
53 | < 25% | COc1cc(OCC2COCCO2)cc(-c2cc(-c3ccc(C)nc3)ccc2C)n1 (centres unmarked) [Compound I-95]
54 | < 25% | O=c1nc(OCC2COCCO2)cc(-c2ccc(OCC(F)(F)F)cn2)[nH]1 (centres unmarked) [Compound I-102]
55 | < 25% | COc1nc(OCC2COCCO2)cc(-c2ccc(C#CC3CC3)cc2C)n1 (centres unmarked) [Compound I-103]
56 | < 25% | Cc1ccc(-c2ccc(-c3cc(OCC4COCCO4)cc(Cl)n3)cc2)cn1 (centres unmarked) [Compound I-105]
57 | < 25% | COc1nc(OCC2COCCO2)cc(-c2ccc(OCC(F)(F)F)cc2)n1 (centres unmarked) [Compound I-110]
58 | < 25% | FC(F)(F)COc1cccc(-c2cccc(OCC3COCCO3)n2)c1 (centres unmarked) [Compound I-111]
59 | < 25% | COc1cc(OCC2COCCO2)nc(-c2ccc(OCC(F)(F)F)cc2C)c1C (centres unmarked) [Compound I-112]
